Source: patent US12495798B2, “Nicotinamide compound and herbicidal composition comprising compound” (KOREA RESEARCH INSTITUTE OF CHEMICAL TECHNOLOGY, priority 2019, dated 2025)

How the values were obtained:
Format in all cases: in vivo
[1] = tested on: velvetleaf; experiment: Herbicidal activity test against upland field weeds (foliar treatment test); conditions: Abutilon theophrasti, 50 g ai/ha, scale 0-100, read-out: Foliar treatment herbicidal activity, velvet leaf
Procedure: (§1) Experimental Example 1: Herbicidal Activity Test Against Upland Field Weeds (Foliar Treatment Test) Foliar treatment was performed as follows: After filling a square plastic pot having a surface area of 350 cm^2 with horticultural soil, seeds (10˜15 grains) or rootstocks (2 pieces) of 5 kinds of grassy weeds of sorghum, barnyard grass, quack grass, crabgrass, fall panicum, and 5 kinds of broadleaf weeds of black nightshade, indian jointvetch, velvetleaf, cocklebur, bindweed, which had been stored in a low temperature (6° C.), were sown. After growing for a certain period in greenhouse conditions (average temperature 30±5° C., light/dark=14/10 hours), test compound solutions were made by diluting with a preparation solution (including 50% acetone, 0.1% Tween-20) so that the final treatment amount of the test compounds was 50 or 75 g a.i./ha. The prepared test compound solution was used for treating foliage by hand-spraying 14 mL per pot in a fume hood. After the treatment, it was managed under the same greenhouse conditions as above, and after 14 days (after 21 days if necessary), the external symptoms and efficacy were investigated according to the scale of 0 (no control) to 100 (complete control). The results of Table 7 were obtained by evaluating weed control value to the untreated control by conducting visual assessment.

[2] = tested on: black nightshade; experiment: as above; set-up: key to Foliar treatment herbicidal activity, black nightshade: 0 (no control); 100 (complete control); conditions: 50 g ai/ha, scale 0-100; for pest or weed control at 50 g/ha: Solanum nigrum
Procedure: as §1

[3] = tested on: barnyard grass; experiment: as above; set-up: key to Foliar treatment herbicidal activity, barnyard grass: 0 (no control); 100 (complete control); conditions: 50 g ai/ha, scale 0-100; for pest or weed control at 50 g/ha: Echinochloa crus-galli
Procedure: as §1

[4] = tested on: indian jointvetch; experiment: as above; set-up: key to Foliar treatment herbicidal activity, Indian jointvetch: 0 (no control); 100 (complete control); conditions: 50 g ai/ha, scale 0-100
Procedure: as §1

[5] = tested on: wheat; experiment: Phytotoxicity test for upland field crops (foliar treatment test); set-up: key: 0 (no harm); 9 (complete withered)
Procedure: (§2) Experimental Example 3: Phytotoxicity Test for Upland Field Crops (Foliar Treatment Test)
(§3) Foliar treatment was performed for grown crops and weeds in a square plastic pot having a surface area of 50 cm^2 filled with horticultural soil. As a fertilizer per pot, 0.5 g of horticultural mixed fertilizer (N:P:K=17:21:17) was treated by mixing in the upper soil. Five kinds of crops such as rice, wheat, corn, soybean, and cotton were sown in each pot, and after growing for a certain period in greenhouse conditions (average temperature 30±5° C., light/dark=14/10 hours), test compound solutions were made by diluting with the diluent (33% acetone, 0.1% Tween-20) so that the final treatment amount of the test compounds was 19˜300 g a.i./ha. The prepared test compound solutions were treated using a spray booth (SB6-016) at a treatment amount of 100 ml per 1 m^2 of treatment area. The treated plants were managed under the same greenhouse conditions as above, and external symptoms and phytotoxicity were investigated 7 and 14 days after treatment (after 21 days if necessary). In the evaluation of the phytotoxicity for the crop, the grade of 0 (no harm) to 9 (complete withered) was used. The results of Table 9 were obtained by evaluating crop phytotoxicity value to the untreated control.

[6] = tested on: corn; experiment: as above; set-up: key: 0 (no harm); 9 (complete withered)
Procedure: as §2, §3

[7] = tested on: quack grass; experiment: Herbicidal activity test against upland field weeds (foliar treatment test); set-up: key to Foliar treatment herbicidal activity, quack grass: 0 (no control); 100 (complete control); conditions: 50 g ai/ha, scale 0-100
Procedure: as §1

[8] = tested on: sorghum; experiment: as above; set-up: key to Foliar treatment herbicidal activity, Sorghum: 0 (no control); 100 (complete control); conditions: 50 g ai/ha, scale 0-100; for plant injury at 50 g/ha: Sorghum
Procedure: as §1

[9] = tested on: crabgrass; experiment: as above; set-up: key to Foliar treatment herbicidal activity, Crabgrass: 0 (no control); 100 (complete control); conditions: 50 g ai/ha, scale 0-100; for pest or weed control at 50 g/ha: Digitaria sanguinalis
Procedure: as §1

[10] = tested on: bindweed; experiment: as above; conditions: 50 g ai/ha, scale 0-100
Procedure: as §1

[11] = tested on: cocklebur; experiment: as above; conditions: Xanthium strumarium, 50 g ai/ha, scale 0-100
Procedure: as §1

[12] = tested on: fall panicum; experiment: as above; conditions: Panicum dichotomiflorum, 50 g ai/ha, scale 0-100
Procedure: as §1

[13] = 50 g ai/ha, Wheat (7 days after treatment)
[14] = 50 g ai/ha, Wheat (14 days after treatment)
[15] = 100 g ai/ha, Wheat (7 days after treatment)
[16] = 100 g ai/ha, Wheat (14 days after treatment)
[17] = 50 g ai/ha, Corn (7 days after treatment)
[18] = 50 g ai/ha, Corn (14 days after treatment)
[19] = 100 g ai/ha, Corn (7 days after treatment)
[20] = 100 g ai/ha, Corn (14 days after treatment)

| Structure (SMILES) | pest or weed control at 50 g/ha [1] [%] | Foliar treatment herbicidal activity, black nightshade [2] | pest or weed control at 50 g/ha [3] [%] | pest or weed control at 50 g/ha [4] [%] | Foliar treatment phytotoxicity, Wheat [5, 13] | Foliar treatment phytotoxicity, Wheat [5, 14] | Foliar treatment phytotoxicity, Wheat [5, 15] | Foliar treatment phytotoxicity, Wheat [5, 16] | Foliar treatment phytotoxicity, Corn [6, 17] | Foliar treatment phytotoxicity, Corn [6, 18] | Foliar treatment phytotoxicity, Corn [6, 19] | Foliar treatment phytotoxicity, Corn [6, 20] | Foliar treatment herbicidal activity, quack grass [7] | plant injury at 50 g/ha [8] [%] | pest or weed control at 50 g/ha [9] [%] | pest or weed control at 50 g/ha [10] [%] | pest or weed control at 50 g/ha [11] [%] | pest or weed control at 50 g/ha [12] [%] | pest or weed control at 50 g/ha [2] [%] | pest or weed control at 50 g/ha [7] [%] | further results |
| --- | --- | --- | --- | --- | --- | --- | --- | --- | --- | --- | --- | --- | --- | --- | --- | --- | --- | --- | --- | --- | --- |
| C=CCn1nnnc1NC(=O)c1ccc(C(F)(F)F)nc1COCc1nnn(CC)n1 [Compound No. 2-90, N-(1-allyl-1H-tetrazol-5-yl)-2-(((2-ethyl-2H-tetrazol-5-yl)methoxy)methyl)-6-(trifluoromethyl)nicotinamide] | 98 | 100 | 98 | 80 | 0 | 0 | 0 | 0 | 0 | 0 | 0 | 0 | 0 | 20 | 70 | 70 | 70 | 60 | – | – | – |
| COCn1nnc(COCc2nc(C(F)(F)F)ccc2C(=O)Nc2nnnn2C)n1 [Compound No. 2-91, 2-(((2-(methoxymethyl)-2H-tetrazol-5-yl)methoxy)methyl)-N-(1-methyl-1H-tetrazol-5-yl)-6-(trifluoromethyl)nicotinamide] | 98 | 100 | 80 | 95 | 0 | 0 | 0 | 0 | 2 | 1 | 3 | 3 | 0 | 50 | 90 | 70 | 98 | 70 | – | – | – |
| CCCn1nnnc1NC(=O)c1ccc(C(F)(F)F)nc1COCc1ncn(C)n1 [Compound No. 2-114, 2-(((1-methyl-1H-1,2,4-triazol-3-yl)methoxy)methyl)-N-(1-propyl-1H-tetrazol-5-yl)-6-(trifluoromethyl)nicotinamide] | 70 | – | 60 | 20 | 1 | 0 | 2 | 1 | 1 | 0 | 2 | 0 | – | – | – | 80 | 90 | 40 | 95 | 10 | Foliar treatment herbicidal activity, Sorghum [8]: 0; Foliar treatment herbicidal activity, Crabgrass [9]: 0 |
| C=CCn1nnnc1NC(=O)c1ccc(C(F)(F)F)nc1COCc1ncn(C)n1 [Compound No. 2-115, N-(1-allyl-1H-tetrazol-5-yl)-2-(((1-methyl-1H-1,2,4-triazol-3-yl)methoxy)methyl)-6-(trifluoromethyl)nicotinamide] | 50 | 100 | – | – | 0 | 0 | 0 | 0 | 0 | 0 | 0 | 0 | 0 | 10 | 20 | 80 | 90 | 50 | – | – | Foliar treatment herbicidal activity, barnyard grass [3]: 0; Foliar treatment herbicidal activity, Indian jointvetch [4]: 0 |
| Cn1nnnc1NC(=O)c1ccc(C(F)(F)F)nc1COCc1nc(C(F)(F)F)n(C)n1 [Compound No. 2-118, N-(1-methyl-1H-tetrazol-5-yl)-2-(((1-methyl-5-(trifluoromethyl)-1H-1,2,4-triazol-3-yl)methoxy)methyl)-6-(trifluoromethyl)nicotinamide] | 90 | 100 | 95 | 50 | 0 | 0 | 0 | 0 | 0 | 0 | 0 | 0 | 0 | 40 | 90 | 95 | 90 | 95 | – | – | – |
| CCn1nnnc1NC(=O)c1ccc(C(F)(F)F)nc1COCc1nc(C(F)(F)F)n(C)n1 [Compound No. 2-119, N-(1-ethyl-1H-tetrazol-5-yl)-2-(((1-methyl-5-(trifluoromethyl)-1H-1,2,4-triazol-3-yl)methoxy)methyl)-6-(trifluoromethyl)nicotinamide] | 50 | – | 95 | 60 | 0 | 0 | 0 | 0 | 0 | 0 | 0 | 0 | – | 20 | 95 | 80 | 90 | 90 | 98 | 30 | – |
